Measured values from patent US7951794B2, “Thiophene derivatives” (Actelion Pharmaceuticals Ltd., priority 2005, dated 2011).

Key:
[1] = target: recombinant human S1P1 receptor (Homo sapiens, UniProt P21453); test: GTPγS assay to determine EC50 values; assay type: biochemical; settings: 35S-GTPγS binding, membrane preparations of CHO cells expressing recombinant human S1P1 receptor, pH 7.4
Procedure: GTPγS binding assays are performed in 96 well microtiter plates (Nunc, 442587) in a final volume of 200 μl, using membrane preparations of CHO cells expressing recombinant human S1P1 receptor. Assay conditions are 20 mM Hepes (Fluka, 54461), 100 mM NaCl (Fluka, 71378), 5 mM MgCl2 (Fluka, 63064), 0.1% BSA (Calbiochem, 126609), 1 μM GDP (Sigma, G-7127), 2.5% DMSO (Fluka, 41644), […] ^35S-GTPγS (Amersham Biosciences, SJ1320). The pH is 7.4. Test compounds are dissolved and diluted in 100% DMSO and pre-incubated at room temperature for 30 min in 150 μl of the above assay buffer, in the absence of ^35S-GTPγS. After addition of 50 μl of ^35S-GTPγS, the assay is incubated for 1 h at room temperature.
The assay is terminated by transfer of the reaction mixture to a Multiscreen plate (Millipore, MAHFC1H60) using a cell harvester from Packard Biosciences, and the plates are washed with ice-cold 10 mM Na2HPO4/NaH2PO4 (70%/30%), dried, sealed at the bottom and, after addition of 25 μl MicroScint20 (Packard Biosciences, order no. 6013621), sealed on the top. Membrane-bound ^35S-GTPγS is measured with a TopCount from Packard Biosciences.
EC50 is the concentration of agonist inducing 50% of the maximal specific ^35S-GTPγS binding. Specific binding is determined by subtracting non-specific binding from maximal binding. Maximal binding is the amount of cpm bound to the Multiscreen plate in the presence of 10 μM of S1P. Non-specific binding is the amount of binding in the absence of an agonist in the assay.

circulating lymphocytes = test: Assessment of in vivo efficacy: circulating lymphocytes after oral administration; settings: 3 h after oral administration of 10 mg/kg to normotensive male Wistar rats, compared to vehicle-treated group
Procedure: The efficacy of the compounds of Formula (I) is assessed by measuring the circulating lymphocytes after oral administration of 3 to 30 mg/kg of a compound of Formula (I) to normotensive male Wistar rats. The animals are housed in climate-controlled conditions with a 12 h-light/dark cycle, and have free access to normal rat chow and drinking water. Blood is collected before and 3, 6 and 24 h after drug administration. Full blood is subjected to hematology using Advia Hematology system (Bayer Diagnostics, Zürich, Switzerland).
All data are presented as mean±SEM. Statistical analyses are performed by analysis of variance (ANOVA) using Statistica (StatSoft) and the Student-Newman-Keuls procedure for multiple comparisons. The null hypothesis is rejected when p<0.05.

Chain of recombinant human S1P1 receptor (P21453 whole entry): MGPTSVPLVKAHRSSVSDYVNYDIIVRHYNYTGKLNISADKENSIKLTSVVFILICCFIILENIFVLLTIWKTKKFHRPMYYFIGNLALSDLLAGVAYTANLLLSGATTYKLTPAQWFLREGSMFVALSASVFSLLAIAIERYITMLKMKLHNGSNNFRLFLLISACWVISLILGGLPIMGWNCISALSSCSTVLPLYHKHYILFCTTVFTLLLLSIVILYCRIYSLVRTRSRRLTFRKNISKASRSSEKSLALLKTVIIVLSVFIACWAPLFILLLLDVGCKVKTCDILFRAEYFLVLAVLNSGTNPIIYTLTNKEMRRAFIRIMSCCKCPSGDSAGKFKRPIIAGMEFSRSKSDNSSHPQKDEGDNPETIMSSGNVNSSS

CCc1sc(C(=O)CCc2cc(C)c(OC[C@@H](O)CO)c(C)c2)cc1-c1ccccc1C [Example 20, 3-[4-((S)-2,3-dihydroxy-propoxy)-3,5-dimethyl-phenyl]-1-(5-ethyl-4-o-tolyl-thiophen-2-yl)-propan-1-one]
EC50 [1]: 6.3 nM

CCCc1sc(C(=O)CCc2cc(C)c(OC[C@@H](O)CO)c(C)c2)cc1-c1ccccc1 [Example 24, 3-[4-((S)-2,3-dihydroxy-propoxy)-3,5-dimethyl-phenyl]-1-(4-phenyl-5-propyl-thiophen-2-yl)-propan-1-one]
EC50 [1]: 16.4 nM

CCc1sc(C(=O)CCc2cc(C)c(OC[C@@H](O)CO)c(C)c2)cc1-c1ccccc1 [Example 10, 3-[4-((S)-2,3-dihydroxy-propoxy)-3,5-dimethyl-phenyl]-1-(5-ethyl-4-phenyl-thiophen-2-yl)-propan-1-one]
EC50 [1]: 6.7 nM
Lymphocyte counts (circulating lymphocytes): −48.5%

CCc1sc(C(=O)CCc2cc(C)c(OC[C@@H](O)CO)c(C)c2)cc1-c1ccccc1OC [Example 50]
EC50 [1]: 11.5 nM

CCc1sc(C(=O)CCc2cc(C)c(CC(O)CO)c(C)c2)cc1-c1ccccc1 (stereo not shown) [Example 11, 3-[4-(2,3-dihydroxy-propyl)-3,5-dimethyl-phenyl]-1-(5-ethyl-4-phenyl-thiophen-2-yl)-propan-1-one]
EC50 [1]: 18.3 nM

CCc1ccccc1-c1cc(C(=O)CCc2cc(C)c(OC[C@@H](O)CO)c(C)c2)sc1CC [Example 31]
EC50 [1]: 9.3 nM
